Measured values: patent publication US10533228B2, “3.beta-hydroxysteroid dehydrogenase in steroid dependent disease” (THE CLEVELAND CLINIC FOUNDATION, priority 2013, dated 2020)

What was measured:
3βHSD = conditions: cited from earlier work
3βHSD1(367N) = target: T1, 3βHSD1(367N) (Homo sapiens, UniProt P14060, T367N); assay: Enzyme kinetics of DHEA metabolism, recombinant enzyme in yeast microsomes; type: biochemical; conditions: Michaelis-Menten plot
T1 construct: made in house; host or cells: Saccharomyces cerevisiae W303B (microsomes)
T1 sequence (P14060 1-373 T367N): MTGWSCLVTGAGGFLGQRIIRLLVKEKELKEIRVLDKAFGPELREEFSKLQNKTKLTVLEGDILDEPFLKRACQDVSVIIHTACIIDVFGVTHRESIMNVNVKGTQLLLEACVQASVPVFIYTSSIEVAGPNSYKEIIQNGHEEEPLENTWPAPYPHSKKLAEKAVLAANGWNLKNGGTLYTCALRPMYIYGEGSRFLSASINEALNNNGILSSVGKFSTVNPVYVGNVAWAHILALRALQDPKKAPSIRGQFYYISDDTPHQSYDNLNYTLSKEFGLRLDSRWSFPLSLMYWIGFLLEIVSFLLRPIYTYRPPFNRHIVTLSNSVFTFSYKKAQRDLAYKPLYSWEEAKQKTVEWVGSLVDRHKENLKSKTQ
Protocol: (§1) Recombinant human 3βHSD1 was expressed in S cerevisciae strain W303B using yeast vector V10-3βHSD1 for wild-type and 367T proteins, and microsomes were prepared as described. Li et al., 2012. Incubations containing [^3H]-DHEA (0.5-40 μM, 100,000 cpm) and 25 μg microsomal protein in 0.25 ml of 50 mM potassium phosphate (pH 7.4) were pre-incubated at 37° C. for 1 min before initiating the reaction with NAD (0.1 mM). After 20 min at 37° C., the steroids were extracted with 1 ml dichloromethane, concentrated, and resolved on an Agilent 1260 HPLC equipped with a Kinetex 2.1×100 mm, 2.6 μm C18 reverse-phase column (Phenomenex, Torrance, Calif.) using methanol-water gradients at 0.4 ml/min. The column effluent was analyzed with a β-RAM4 (LabLogic) in-line scintillation counter and Bio-SafeII cocktail (Research Products International). Means of triplicate determinations were plotted as v versus [S], and kinetic constants Km and Vmax were obtained by fitting the data to the Michaelis-Menten equation using Origin version 7.5.

3βHSD1(367T) = target: T2, 3βHSD1(367T) (Homo sapiens, UniProt P14060); assay: as above; type: biochemical; conditions: Michaelis-Menten plot
T2 construct: made in house; host or cells: Saccharomyces cerevisiae W303B (microsomes)
T2 sequence (P14060 2-373): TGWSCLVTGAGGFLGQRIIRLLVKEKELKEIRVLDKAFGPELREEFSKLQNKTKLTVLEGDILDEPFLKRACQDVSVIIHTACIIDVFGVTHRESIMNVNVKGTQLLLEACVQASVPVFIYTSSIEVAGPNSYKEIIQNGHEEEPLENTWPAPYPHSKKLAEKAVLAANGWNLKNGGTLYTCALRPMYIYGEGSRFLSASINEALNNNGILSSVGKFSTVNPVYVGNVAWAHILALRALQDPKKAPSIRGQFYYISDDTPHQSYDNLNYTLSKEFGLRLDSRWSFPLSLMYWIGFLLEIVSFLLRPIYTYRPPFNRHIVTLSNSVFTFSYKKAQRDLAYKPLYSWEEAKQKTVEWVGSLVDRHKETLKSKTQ
Protocol: as §1

LAPC4 cells = assay: Steroid metabolism (flux from [3H]-DHEA to AD), HPLC; type: cell-based, human; conditions: LAPC4, 100 nM, after 48 hours
Protocol: (§2) Steroid metabolism experiments were performed 12 hours after seeding cells by treatment with 1 mL serum-free medium containing [^3H]-labeled DHEA (100 nM, 300,000-600,000 cpm; PerkinElmer). Aliquots of medium were collected for up to 48 hours, treated with β-glucuronidase (1000 units; Sigma-Aldrich) at 65° C. for 4 hours. Deconjugated steroids were extracted, evaporated under nitrogen stream, dissolved in 50% methanol, injected on a Breeze 1525 system equipped with model 717 plus autoinjector (Waters Corp.) and steroid metabolites were separated on a Luna 150×3 mm, […] C18 reverse-phase column (Phenomenex). The column effluent was mixed with Liquiscint scintillation cocktail (National Diagnostics) and analyzed by a β-RAM model 3 in-line radioactivity detector (IN/US Systems). Steroid metabolism experiments with transient enzyme expression were performed with pCMV5-HSD3B1 (367N and 367T) constructs 24 hours after transfection and 12 hours after treatment with 25 μM cycloheximide (CHX). […]
(§3) Cells (300,000-400,000 cells per well) were plated in 12-well plates coated with poly-L-ornithine. […] The column effluent was mixed with Liquiscint scintillation cocktail (National Diagnostics, Atlanta, Ga.) and analyzed by a β-RAM model 3 in-line radioactivity detector (LabLogic, Brandon, Fla.). […]

LNCaP cells = assay: as above; type: cell-based, human; conditions: 100 nM, after 48 hours
Protocol: as §2, §3

[1] = tested on: PSA and TMPRSS2 expression; assay: AR-regulated gene expression by qPCR in LNCaP; type: cell-based, human; conditions: qPCR normalized to RPLP0 and vehicle
Protocol: (§4) Gene expression. To accurately quantitate each gene transcript, qPCR was performed as previously described. Chang et al., 2011. Briefly, the iTaq SYBR Green Supermix with ROX kit (Bio-Rad, Hercules, Calif.) was applied for the thermocycling reaction in an ABI-7500 Real-Time PCR machine (Applied Biosystems, Foster City, Calif.). Total RNA (1 μg) collected by RNeasy kit (QIAGEN) was used in a RT reaction with the iScript cDNA synthesis kit (Bio-Rad). The qPCR analysis was carried out in triplicate with the following primer sets: HSD3B1 (Forward: 5′-[…]-3′ (SEQ ID NO: 11); Reverse: 5′-[…]-3′ (SEQ ID NO: 12)), PSA (Forward: 5′-[…]-3′ (SEQ ID NO: 13); Reverse: 5′-[…]-3′ (SEQ ID NO: 14)), TMPRSS2 (Forward: 5′-[…]-3′ (SEQ ID NO: 15); Reverse: 5′-[…]-3′ (SEQ ID NO: 16)), the housekeeping gene large ribosomal protein P0 (RPLP0) (Forward: 5′-CGAGGGCACCTGGAAAAC-3′ (SEQ ID NO: 17); Reverse: 5′-CACATTCCCCCGGATATGA-3′ (SEQ ID NO: 18)) and GAPDH (Forward: 5′-[…]-3′ (SEQ ID NO: 19); Reverse: 5′-[…]-3′ (SEQ ID NO: 20)). Each mRNA transcript was quantitated by normalizing the sample values to RPLP0 or GAPDH and to non-silencing control cells (for knockdown) or to vehicle treated cells (for steroid treated cells). All gene expression studies were repeated in independent experiments.

[2] = tested on: PSA and TMPRSS2 expression; assay: AR-regulated gene expression by qPCR in LAPC4; type: cell-based, human; conditions: LAPC4, qPCR normalized to RPLP0 and vehicle
Protocol: as §4

SMILES | inhibition of 3βHSD (3βHSD) | Km (3βHSD1(367N)) [µM] | Km (3βHSD1(367T)) [µM] | [3H]-DHEA metabolized by 3βHSD enzymatic activity to AD (LAPC4 cells) | [3H]-DHEA metabolized by 3βHSD enzymatic activity to AD (LNCaP cells) [%] | PSA and TMPRSS2 expression [1] | PSA and TMPRSS2 expression [2]
CC(=O)O[C@H]1CC[C@@]2(C)C(=CC[C@@H]3[C@@H]2CC[C@]2(C)C(c4cccnc4)=CC[C@@H]32)C1 [abiraterone, abiraterone acetate] | weakly inhibits |  |  |  |  |  | 
C[C@]12CC[C@H](O)CC1=CC[C@@H]1[C@@H]2CC[C@]2(C)C(=O)CC[C@@H]12 [DHEA, dehydroepiandrosterone] |  | 32 | 7 | approximately 10% | > 90 | induces PSA and TMPRSS2 expression in a concentration-dependent manner | absence of DHEA concentration-dependent increases in AR-regulated PSA and TMPRSS2
